Results reported in US12576168B2, “Peptide PET/SPECT probes specific to oncoproteins in tumor extracellular matrix” (CASE WESTERN RESERVE UNIVERSITY, priority 2019, dated 2026).
Values belong to the substance of their own block, whether it stands above or below them. Ends that are not written are not given here. * marks the point of attachment. DOTA = O=C(O)CN1CCN(CC(=O)O)CCN(CC(=O)*)CCN(CC(=O)O)CC1; AEEA = NCCOCCOCC(=O)O

Legend:
EDB-FN [1] = target: T1, EDB-FN (Homo sapiens, UniProt P02751); assay: ZD2 peptide binding to prostate tissue; design: from tissue; host or cells: High-grade and low-grade prostate tumour and normal tissue
T1 sequence (P02751 32-2477): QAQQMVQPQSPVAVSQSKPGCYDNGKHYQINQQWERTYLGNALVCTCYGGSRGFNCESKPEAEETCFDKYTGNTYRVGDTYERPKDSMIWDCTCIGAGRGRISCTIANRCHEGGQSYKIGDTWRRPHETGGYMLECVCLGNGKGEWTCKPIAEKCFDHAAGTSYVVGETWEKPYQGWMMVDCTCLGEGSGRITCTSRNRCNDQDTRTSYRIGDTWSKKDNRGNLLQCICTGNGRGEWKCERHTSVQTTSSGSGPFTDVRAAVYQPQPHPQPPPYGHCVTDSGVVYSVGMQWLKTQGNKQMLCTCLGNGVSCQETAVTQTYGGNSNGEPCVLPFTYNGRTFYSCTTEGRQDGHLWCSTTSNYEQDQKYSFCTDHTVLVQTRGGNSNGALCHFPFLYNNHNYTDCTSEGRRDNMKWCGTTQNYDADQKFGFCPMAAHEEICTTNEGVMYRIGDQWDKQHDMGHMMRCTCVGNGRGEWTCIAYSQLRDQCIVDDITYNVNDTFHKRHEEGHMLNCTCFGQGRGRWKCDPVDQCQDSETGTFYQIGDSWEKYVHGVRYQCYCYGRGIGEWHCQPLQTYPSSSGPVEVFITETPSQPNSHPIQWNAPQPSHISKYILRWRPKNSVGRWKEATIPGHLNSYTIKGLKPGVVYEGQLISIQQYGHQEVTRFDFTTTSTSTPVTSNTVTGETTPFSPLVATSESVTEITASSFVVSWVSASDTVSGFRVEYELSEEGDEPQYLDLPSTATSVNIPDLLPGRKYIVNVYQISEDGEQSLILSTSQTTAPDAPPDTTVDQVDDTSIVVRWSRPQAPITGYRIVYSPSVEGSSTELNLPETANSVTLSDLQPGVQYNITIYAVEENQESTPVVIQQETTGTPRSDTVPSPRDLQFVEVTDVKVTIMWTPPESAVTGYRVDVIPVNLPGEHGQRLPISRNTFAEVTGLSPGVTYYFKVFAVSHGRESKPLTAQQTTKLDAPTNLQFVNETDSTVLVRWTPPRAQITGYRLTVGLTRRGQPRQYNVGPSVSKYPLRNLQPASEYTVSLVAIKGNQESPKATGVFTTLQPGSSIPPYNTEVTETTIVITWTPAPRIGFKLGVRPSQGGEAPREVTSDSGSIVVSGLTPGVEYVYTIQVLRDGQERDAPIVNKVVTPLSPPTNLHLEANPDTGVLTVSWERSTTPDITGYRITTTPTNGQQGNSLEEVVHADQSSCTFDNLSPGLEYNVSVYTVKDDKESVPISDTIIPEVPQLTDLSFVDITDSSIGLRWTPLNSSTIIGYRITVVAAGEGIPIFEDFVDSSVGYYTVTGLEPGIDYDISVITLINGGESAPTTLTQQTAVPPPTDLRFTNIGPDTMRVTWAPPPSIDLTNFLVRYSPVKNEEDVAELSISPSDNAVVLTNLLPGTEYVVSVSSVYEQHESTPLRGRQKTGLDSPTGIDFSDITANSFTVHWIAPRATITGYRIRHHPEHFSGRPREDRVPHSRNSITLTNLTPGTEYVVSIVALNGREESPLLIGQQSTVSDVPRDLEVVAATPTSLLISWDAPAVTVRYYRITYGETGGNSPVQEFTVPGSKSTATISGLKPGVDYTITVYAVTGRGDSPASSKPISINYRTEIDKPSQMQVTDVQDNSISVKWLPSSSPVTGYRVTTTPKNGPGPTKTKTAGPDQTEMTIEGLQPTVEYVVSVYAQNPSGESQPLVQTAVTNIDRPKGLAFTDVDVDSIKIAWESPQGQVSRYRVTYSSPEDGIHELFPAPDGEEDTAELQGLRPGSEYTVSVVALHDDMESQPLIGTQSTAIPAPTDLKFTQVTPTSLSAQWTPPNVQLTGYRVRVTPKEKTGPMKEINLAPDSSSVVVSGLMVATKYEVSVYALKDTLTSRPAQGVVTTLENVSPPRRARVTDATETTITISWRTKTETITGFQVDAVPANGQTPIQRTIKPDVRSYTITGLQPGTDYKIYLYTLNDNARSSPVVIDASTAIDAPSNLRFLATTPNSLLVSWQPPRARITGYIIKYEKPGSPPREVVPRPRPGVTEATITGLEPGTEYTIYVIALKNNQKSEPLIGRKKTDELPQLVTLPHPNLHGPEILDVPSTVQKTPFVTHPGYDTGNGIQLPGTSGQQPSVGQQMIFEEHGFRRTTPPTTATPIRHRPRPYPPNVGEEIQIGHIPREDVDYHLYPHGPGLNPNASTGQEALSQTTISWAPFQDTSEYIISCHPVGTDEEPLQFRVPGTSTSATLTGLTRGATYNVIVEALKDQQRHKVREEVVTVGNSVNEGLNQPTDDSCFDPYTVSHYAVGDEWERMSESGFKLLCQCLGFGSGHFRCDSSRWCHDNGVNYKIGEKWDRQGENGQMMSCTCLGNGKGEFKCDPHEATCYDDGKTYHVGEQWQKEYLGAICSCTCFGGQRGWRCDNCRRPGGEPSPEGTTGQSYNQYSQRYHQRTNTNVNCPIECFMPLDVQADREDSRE

Water solubility = type: physicochemical
EDB-FN [2] = target: T1, EDB-FN; assay: ZD2-Cy5.5 staining of human pancreatic specimens; type: binding; design: incubation of ZD2-Cy5.5 with tumor slides of the above tumor xenografts; from tissue; host or cells: Sections of BXPC3, Capan-1, Panc 10.05 and Panc-1 tumour xenografts from female nude mice; normal pancreas and muscle as controls
EDB-FN [3] = target: T1, EDB-FN; assay: ZD2-Cy5.5 fluorescence binding to slides of human pancreatic cancer xenografts; design: incubation of ZD2-Cy5.5 with tumor slides of the above tumor xenografts; from tissue; host or cells: Sections of BXPC3, Capan-1, Panc 10.05 and Panc-1 tumour xenografts from female nude mice; normal pancreas and muscle as controls
Protocol: A ZD2 peptide (Thr-Val-Arg-The-Ser-Ala-Asp) targeted fluorescence tracer ZD2-Cy5.5 was synthesized according to a reported method to assess the binding of the peptide to EDB-FN in PaCa tumors. The binding specificity of ZD2 peptide to EDB-FN in pancreatic cancer has been tested by incubation of ZD2-Cy5.5 with tumor slides of the above tumor xenografts. […] ZD2 peptide is a promising targeting agent for specific binding of EDB-FN in PaCa tumors.

[4] = system: PC3 human prostate cancer xenografts; assay: PET/CT imaging of tracer uptake in PC3 tumors of tumor-bearing mice; type: in vivo
Protocol: (§1) The animal study has been approved by the Institutional Animal Care and Use Committee of the Case Western Reserve University (CWRU), […]. PC3 and LNCaP cells were acquired from the American Type Culture Collection (ATCC, Manassas, VA, USA) and cultured in Roswell Park Memorial Institute medium (Thermo Fisher Scientific, Waltham, MA) supplemented with 10% fetal bovine serum, 100 U/mL penicillin, and 0.1 mg/mL streptomycin in a humid incubator maintained at 37° C. and 5% CO2. Male athymic nude mice (4-6 weeks old) were acquired from the Case Comprehensive Cancer Center (Cleveland, OH, USA) and housed in the CWRU Animal Core Facility. Three million cells in high concentration Matrigel (Corning, Tewksbury, MA) were used for tumor inoculation. LNCaP cells were subcutaneously inoculated in the left flank of the mice. Four weeks later, PC3 cells were inoculated on the right flank of the same mice for PET imaging.
(§2) The radioisotope ^64Cu(II) was acquired from the University of Wisconsin-Madison (Madison, WI). The chelation of ZD2-PEG-DOTA with Cu(II) was first tested with cold CuCl2 in 0.1 N HCl aqueous solution under the same condition as radiolabeling. […] The formation of ZD2-DA-(Cu-DOTA) was verified by MALDI-TOF mass spectrometry (M+1: 1487.8, observed; 1486.04, calculated). […]

[5] = system: LNCaP human prostate cancer xenografts; assay: PET/CT imaging of tracer uptake in LNCaP tumors of tumor-bearing mice; type: in vivo; settings: 22 h after injection, 7.4 MBq (200 μCi) per mouse i.v., N=4
Protocol: as §1, §2

- binding in normal tissue (EDB-FN [1]): nonbinding
- binding to low-grade tumor (EDB-FN [1]): weak binding affinity
- binding toward high-grade prostate tumor (EDB-FN [1]): strong binding affinity
- water solubility (Water solubility): highly water-soluble
Substance: TVRTSAD-OH [ZD2 peptide, Thr-Val-Arg-Thr-Ser-Ala-Asp]

- fluorescence staining of precancerous pancreatic intraepithelial neoplasia (EDB-FN [2]; human PanIN): some fluorescence intensity
- fluorescence staining of normal pancreas (EDB-FN [2]; human normal pancreas): little fluorescence
- fluorescence staining of human PaCa specimen (EDB-FN [2]; human pancreatic cancer): strong red fluorescence
- binding to EDB-FN in PaCa after pre-incubation with BC-1 anti-EDB-FN monoclonal antibody (EDB-FN [3]; BC-1/ZD2): blocked
- binding to normal pancreas and muscle (EDB-FN [3]; tissue slides): No significant binding
- binding to BXPC3, Capan-1, Panc 10.05 and Panc-1 tumor tissues (EDB-FN [3]; tumor xenograft slides): strong binding
Substance: ZD2-Cy5.5: ZD2 peptide targeted fluorescence tracer synthesized according to a reported method (TVRTSAD; also: Cy5.5 fluorescence tracer attached, site not given here)

Substance: ZD2-DA-(^64Cu-DOTA): ZD2 peptide (TVRTSAD) linked via two repeats of 8-amino-3,6-dioxaoctanoic acid to DOTA, complexed with 64Cu ({DOTA-AEEA-AEEA}-TVRTSAD; also: 64Cu chelated by DOTA)
- accumulation of PET tracer in PC3 tumors compared to LNCaP tumors ([4]; 22 h, P<0.05): over two-folds higher
- accumulation of PET tracer in PC3 tumors (ROI) ([4]; 22 h after injection, 7.4 MBq (200 μCi) per mouse i.v., N=4): 7711±1994 Bq/mL
- accumulation of PET tracer in LNCaP tumors (ROI) [5]: 3213±1511 Bq/mL
